Molecular target: factor Xa (Bos taurus, UniProt P00743)
Assay: kinetic amidolytic
Assay type: biochemical

Sequence of factor Xa (P00743 41-180): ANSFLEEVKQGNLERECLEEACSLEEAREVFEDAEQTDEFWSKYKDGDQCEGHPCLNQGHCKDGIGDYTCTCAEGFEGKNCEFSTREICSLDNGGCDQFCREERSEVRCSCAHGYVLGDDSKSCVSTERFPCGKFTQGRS
Sequence of factor Xa (P00743 234-492): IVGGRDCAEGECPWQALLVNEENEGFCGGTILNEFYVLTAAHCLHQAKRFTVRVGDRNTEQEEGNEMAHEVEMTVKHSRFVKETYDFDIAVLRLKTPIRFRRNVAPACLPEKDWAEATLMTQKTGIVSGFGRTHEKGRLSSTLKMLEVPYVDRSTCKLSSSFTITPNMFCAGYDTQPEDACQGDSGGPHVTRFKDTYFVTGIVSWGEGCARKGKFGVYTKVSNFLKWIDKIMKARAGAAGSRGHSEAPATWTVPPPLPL

- IC50: 2.88 µM
Compound: COc1ccc(NC(=O)c2ccc(C(=N)N(C)C)cc2)c(C(=O)Nc2ccc(Cl)cn2)c1 [Betrixaban]

Reference: publication PMC6714936 (Clinical and Applied Thrombosis/Hemostasis, 2019)
